Test results reported in paper PMC2360547 (British Journal of Cancer, 2006).
Where two headings read alike, the source gives them in different places.

Test system: PKC
Method: Tumour biopsies were immediately frozen in liquid nitrogen and stored at −70°C until analysis. Heparinised blood (10 ml) was collected predose and at day 28.
Tumours were powdered in liquid nitrogen and homogenised on ice using an Ultra-Turrax in a buffer containing 20 mM HEPES, pH 7.4, 2 mM EDTA, 25 mM β-glycerophosphate, 0.2 mM DTT, 10 μg ml^−1 leupeptin, 10 μg ml^−1 aprotinin, 1 μg ml^−1 pepstatin, 1 μM sodium orthovanadate and 0.5 mM PMSF. Extracts were then sonicated in an ice cold sonicating bath for 5 min before centrifugation at 1000 g for 5 min to remove cellular debris. Supernatants were centrifuged at 50 000 g for 15 min to separate cytosolic (supernatant) and particulate (pellet) fractions. The supernatant was kept as ‘cytosolic’ fraction. The pellet was further extracted by resuspension in the original lysis buffer including 1% NP-40. Following sonication for 5 min on ice, the extract was centrifuged at 50 000 g for 15 min. The supernatant from this spin (which derived from the original pellet) was kept as the ‘particulate’ fraction. All steps were performed at 4°C or on ice.
The protein concentrations of the cytosolic and particulate fractions were measured after TCA precipitation using the Dc protein assay kit (Bio-Rad).
Intratumoral total PKC activity was measured in cytosolic and particulate fractions using protamine sulphate as the substrate, following the method of a validated assay ([Budworth and Gescher, 1995]). The PKC assay was performed with 4–5 μl of the cytosol or particulate extract (2–50 μg protein) in a total reaction volume of 200 μl, including 200 μg ml^−1 protamine sulphate, 150 μM (γ-^32P)ATP (200 c.p.m. pmol^−1) in a buffer containing 20 mM Tris-HCl, pH 7.4, 10 mM magnesium acetate and 0.5 mM EGTA. The reaction was terminated after 6–7 min (30°C) by spotting 35 μl of the mix onto P81 phosphocellulose paper, followed by washing in 75 mM phosphoric acid. Bound, phosphorylated protamine sulphate was quantitated by scintillation counting of the phosphocellulose papers. Protein kinase C activity was determined by phosphate incorporation into protamine sulphate and expressed as picomolar of phosphate transferred min mg^−1 protein. Measurements were performed in triplicate. Each patient's pretreatment and day 28 biopsies were processed together and analysed in the same assay run. Up to six patients’ samples could be analysed in one day to minimise interassay variability.

[1] = one patient resistant to midostaurin with abundance of PKCξ

SMILES: CO[C@@H]1[C@H](N(C)C(=O)c2ccccc2)C[C@H]2O[C@]1(C)n1c3ccccc3c3c4c(c5c6ccccc6n2c5c31)C(=O)NC4 [Midostaurin, N-benzoyl-staurosporine]
- Effect on phosphorylation of protamine sulphate (10 μM added to melanoma biopsies from nontrial patients): inhibited phosphorylation
- Reduction of cytosolic PKC activity compared to pretreatment biopsy (day 28 tumour biopsy, in seven out of nine patients): 7–91%
- Change of cytosolic PKC activity [1]: unchanged
- Increase in particulate PKC activity [1]: 65%
- Percentage of total PKC activity present in the particulate fraction (patient 10, day 28 (day 0: 19.1%)): 15.4%
- Percentage of total PKC activity present in the particulate fraction (patient 11, day 28 (day 0: 15.7%)): 11.1%
